Source: ChEMBL document CHEMBL5634175, “Genome-Driven Discovery of Hygrocins in Streptomyces rapamycinicus” (2024)

Key:
Type in all cases: functional
Bacillus subtilis = experiment: Antibacterial activity against Bacillus subtilis incubated for 12 hrs by broth microdilution method
Pseudomonas aeruginosa = experiment: Antibacterial activity against Pseudomonas aeruginosa PAO1 incubated for 12 hrs by broth microdilution method
Staphylococcus aureus = experiment: Antibacterial activity against Staphylococcus aureus 8325 incubated for 12 hrs by broth microdilution method
Candida albicans = experiment: Antifungal activity against Candida albicans IBT 656 incubated for 24 hrs by broth microdilution method

Measured: MIC

CC[C@@H](/C=C/[C@H](O)[C@H](C)OC(=O)/C(C)=C\C1=C2C(=CC(=O)c3cc(O)c(C)cc32)NC1=O)CCC(=O)O
> 50 µg/mL: all assays above

CC[C@@H](/C=C/[C@H](OC(=O)/C(C)=C\C1=C2C(=CC(=O)c3cc(O)c(C)cc32)NC1=O)[C@H](C)O)CCC(=O)O
> 50 µg/mL: all assays above

CC[C@H]1/C=C/[C@H](O)[C@@H](C)OC(=O)/C(C)=C\CC(=O)Nc2cc(O)cc3c2O[C@@]2(CC1)CC(=O)[C@H](C)[C@H]3O2
> 50 µg/mL: all assays above

CC[C@H]1/C=C/[C@@H]([C@@H](C)O)OC(=O)/C(C)=C\CC(=O)Nc2cc(O)cc3c2O[C@@]2(CC1)CC(=O)[C@@H](C)[C@@H]3O2
> 50 µg/mL: all assays above

CC[C@@H](/C=C/[C@H](O)[C@H](C)OC(=O)/C(C)=C\[C@@H]1C(=O)NC2=CC(=O)c3cc(O)c(C)cc3[C@]21O)CCC(=O)O
> 50 µg/mL: all assays above

CC[C@@H](/C=C/[C@H](OC(=O)/C(C)=C\[C@H]1C(=O)NC2=CC(=O)c3cc(O)c(C)cc3[C@@]21O)[C@H](C)O)CCC(=O)O
> 50 µg/mL: all assays above

CC[C@@H](/C=C/[C@H](OC(=O)/C(C)=C\[C@@H]1C(=O)NC2=CC(=O)c3cc(O)c(C)cc3[C@]21O)[C@H](C)O)CCC(=O)O
> 50 µg/mL: all assays above
